The source of these data is patent publication US6977246B2, “Certain dinucleotides and their use as modulators of mucociliary clearance and ciliary beat frequency” (Inspire Pharmaceuticals, Inc., priority 1997, dated 2005).

Counter-ions that a name gives are not always drawn. Like-named read-outs stand apart in the source and are kept apart here.

In one data set the target is P2Y2 receptor (Homo sapiens, UniProt P41231). As to the kind of experiment: inositol phosphate assay, P2Y2 receptor activity.
For a further data set, the target named is P2Y6 receptor (Homo sapiens, UniProt Q15077). In words: inositol phosphate assay, P2Y6 receptor activity.
In data set [1] the target is T1, P2Y1 receptor (Homo sapiens, UniProt P47900). In words: inositol phosphate assay, P2Y1 receptor activity. As to conditions: inositol phosphate formation.
From the text: (§1) The pharmaceutical utility of compounds of this invention are indicated by the inositol phosphate assay for P2Y2 and other P2Y receptor activity. […] 116, 1619-27 (1995), relies on the measurement of inositol phosphate formation as a measurement of activity of compounds activating receptors linked via G-proteins to phospholipase C.
Another data set has as its target P2Y4 receptor (Homo sapiens, UniProt P51582). As to the kind of experiment: inositol phosphate assay, P2Y4 receptor activity.
Data set [2] addresses T1, P2Y1 receptor. In words: cell-based.
From the text: as §1
The conditions of data set [3]: normal volunteers; cited from earlier work.
Where [4] appears, read: read-out: EC50 P2Y2, inositol phosphate formation.
The mark [5] stands for this setting: read-out: EC50 P2Y6, inositol phosphate formation.
The mark [6] stands for this setting: read-out: EC50 P2Y4, inositol phosphate formation.

T1 sequence (P47900 whole entry): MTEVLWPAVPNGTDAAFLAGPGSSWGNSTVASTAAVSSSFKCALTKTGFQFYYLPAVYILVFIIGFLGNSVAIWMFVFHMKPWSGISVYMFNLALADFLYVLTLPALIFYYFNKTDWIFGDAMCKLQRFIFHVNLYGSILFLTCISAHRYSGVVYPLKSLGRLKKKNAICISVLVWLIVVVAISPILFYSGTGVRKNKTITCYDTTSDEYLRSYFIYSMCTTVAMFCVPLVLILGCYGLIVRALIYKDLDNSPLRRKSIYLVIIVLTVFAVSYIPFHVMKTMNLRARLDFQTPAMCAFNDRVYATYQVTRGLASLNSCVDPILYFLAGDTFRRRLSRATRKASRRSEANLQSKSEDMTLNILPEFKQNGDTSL
P2Y4 receptor, sequence (P51582 whole entry): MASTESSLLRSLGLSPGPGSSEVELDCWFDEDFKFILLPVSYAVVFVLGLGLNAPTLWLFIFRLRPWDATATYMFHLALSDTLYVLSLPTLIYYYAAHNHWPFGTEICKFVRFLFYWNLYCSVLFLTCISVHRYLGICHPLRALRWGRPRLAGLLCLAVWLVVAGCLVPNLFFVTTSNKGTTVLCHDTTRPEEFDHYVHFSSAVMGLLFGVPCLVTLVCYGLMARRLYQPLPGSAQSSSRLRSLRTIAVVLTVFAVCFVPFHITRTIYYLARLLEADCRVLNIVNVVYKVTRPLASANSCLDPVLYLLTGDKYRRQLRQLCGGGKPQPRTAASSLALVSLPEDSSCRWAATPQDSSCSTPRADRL
P2Y2 receptor, sequence (P41231 whole entry): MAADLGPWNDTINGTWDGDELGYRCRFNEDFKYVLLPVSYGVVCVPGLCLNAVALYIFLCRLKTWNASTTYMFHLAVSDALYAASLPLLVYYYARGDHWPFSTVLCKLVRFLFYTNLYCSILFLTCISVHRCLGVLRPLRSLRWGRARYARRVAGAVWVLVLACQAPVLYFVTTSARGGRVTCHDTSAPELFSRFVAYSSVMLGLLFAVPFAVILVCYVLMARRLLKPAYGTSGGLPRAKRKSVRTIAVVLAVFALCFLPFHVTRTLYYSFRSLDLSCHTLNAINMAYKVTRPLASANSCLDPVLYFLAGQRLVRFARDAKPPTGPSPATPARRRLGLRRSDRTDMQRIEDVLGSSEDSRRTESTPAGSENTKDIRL
P2Y6 receptor, sequence (Q15077 whole entry): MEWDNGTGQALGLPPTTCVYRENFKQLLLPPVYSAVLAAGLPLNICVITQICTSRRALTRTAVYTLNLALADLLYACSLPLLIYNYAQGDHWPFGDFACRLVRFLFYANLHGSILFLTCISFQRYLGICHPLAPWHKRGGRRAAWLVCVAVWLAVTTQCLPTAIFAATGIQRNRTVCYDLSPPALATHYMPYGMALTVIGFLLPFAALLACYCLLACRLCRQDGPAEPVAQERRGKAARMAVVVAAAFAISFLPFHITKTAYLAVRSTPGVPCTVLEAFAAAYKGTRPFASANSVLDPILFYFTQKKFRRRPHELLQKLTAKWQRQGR
From the text for P2Y2 receptor: as §1
From the text for P2Y4 receptor: as §1
From the text for P2Y6 receptor: as §1

On to “2′(3′)-Benzoyl-P^1,P^4-di(uridine 5′-)tetraphosphate [Example 15]”, for which the EC50 on P2Y2 receptor (setting [4]) is 640 nM; on P2Y6 receptor (setting [5]), 9710 nM; at P2Y4 receptor (setting [6]) it was 3720 nM. Moreover, the “EC50 P2Y1” value at P2Y1 receptor [1] is recorded as “IA (Response < 2-fold basal)”.
For `O=c1ccn([C@@H]2O[C@H](COP(=O)(O)OP(=O)(O)CP(=O)(O)OP(=O)(O)OC[C@H]3O[C@@H](n4ccc(=O)[nH]c4=O)[C@H](O)[C@@H]3O)[C@@H](O)[C@H]2O)c(=O)[nH]1` [Example 1, P^1,P^4-Di(uridine 5′-)P^2,P^3-methylenetetraphosphate], the EC50 on P2Y2 receptor was over 100000 nM; on P2Y4 receptor, 11100 nM. In addition, the “EC50 P2Y6” value on P2Y6 receptor (inositol phosphate formation) is recorded as “IA (Response < 2-fold basal)”. Besides, the “Percentage response of same study positive control, P2Y4” value (“Percentage response … P2Y4” for short) on P2Y4 receptor (inositol phosphate formation) is on record as 60%.
As for `O=c1ccn([C@@H]2O[C@H](COP(=O)(O)OP(=O)(O)C(F)(F)P(=O)(O)OP(=O)(O)OC[C@H]3O[C@@H](n4ccc(=O)[nH]c4=O)[C@H](O)[C@@H]3O)[C@@H](O)[C@H]2O)c(=O)[nH]1` [Example 2, P^1,P^4-Di(uridine 5′-P^2,P^3-difluoromethylenetetraphosphate)], the EC50 on P2Y2 receptor was 5710 nM; on P2Y6 receptor, over 100000 nM; on P2Y4 receptor, 1000 nM. In addition, on P2Y4 receptor (inositol phosphate formation), the “Percentage response … P2Y4” value was 80%.
`O=c1ccn([C@@H]2O[C@H](COP(=O)(O)OP(=O)(O)NP(=O)(O)OP(=O)(O)OC[C@H]3O[C@@H](n4ccc(=O)[nH]c4=O)[C@H](O)[C@@H]3O)[C@@H](O)[C@H]2O)c(=O)[nH]1` [Example 3, P^1,P^4-Di(uridine 5′-P^2,P^3-imidotetraphosphate)]: the EC50 at P2Y1 receptor [2] is 3670 nM; at P2Y2 receptor, 630 nM; on P2Y6 receptor it was 2560 nM; on P2Y4 receptor, 1190 nM.
Turning to `O=c1[nH]c(=S)ccn1[C@@H]1O[C@H](COP(=O)(O)OP(=O)(O)OP(=O)(O)OP(=O)(O)OC[C@H]2O[C@@H](n3ccc(=S)[nH]c3=O)[C@H](O)[C@@H]2O)[C@@H](O)[C@H]1O` [Example 4, P^1,P^4-Di(4-thiouridine 5′-tetraphosphate)], the EC50 amounted to 20 nM on P2Y2 receptor and 50 nM on P2Y6 receptor. For the same compound, on P2Y6 receptor (inositol phosphate formation), the “Percentage response of same study positive control, P2Y6” value was found to be 20%.
On to `O=c1ccn([C@@H]2O[C@H](COP(=O)(O)OP(=O)(O)OP(=O)(O)OP(=O)(O)OP(=O)(O)OC[C@H]3O[C@@H](n4ccc(=O)[nH]c4=O)[C@H](O)[C@@H]3O)[C@@H](O)[C@H]2O)c(=O)[nH]1` [Example 5, P^1,P^5-Di(uridine 5′-pentaphosphate)], for which the concentration for a half-maximal effect (EC50) at P2Y1 receptor [2] was found to be 31200 nM; at P2Y2 receptor, 3800 nM; on P2Y6 receptor, 92600 nM; at P2Y4 receptor, 2870 nM. Also, the “Percentage response of same study positive control, P2Y2” value at P2Y2 receptor (inositol phosphate formation) was found to be 80%. Moreover, the “Percentage response of same study positive control, P2Y1” value on P2Y1 receptor [1] was 55%.
`O=c1n([C@@H]2O[C@H](COP(=O)(O)OP(=O)(O)OP(=O)(O)OP(=O)(O)OC[C@H]3O[C@@H](n4ccc5nccn5c4=O)[C@H](O)[C@@H]3O)[C@@H](O)[C@H]2O)ccc2nccn12` [Example 6, P^1,P^4-Di(3,N^4-ethenocytidine 5′-)tetraphosphate]: the results for the EC50 on P2Y1 receptor [2], at P2Y2 receptor and on P2Y4 receptor were over 100000 nM, 460 nM and 19800 nM, respectively. Besides, the “EC50 P2Y6” value on P2Y6 receptor (inositol phosphate formation) was “IA (Response < 2-fold basal)”. Moreover, on P2Y4 receptor (inositol phosphate formation), the “Percentage response … P2Y4” value amounted to 75%.
With `O=c1n([C@@H]2O[C@H](COP(=O)(O)OP(=O)(O)OP(=O)(O)OP(=O)(O)OC[C@H]3O[C@@H](n4ccc5nc(-c6cccc([N+](=O)[O-])c6)cn5c4=O)[C@H](O)[C@@H]3O)[C@@H](O)[C@H]2O)ccc2nc(-c3cccc([N+](=O)[O-])c3)cn12` [Example 6a, P^1,P^4-Di(imidazo[1,2-c]pyrimidin-5(6H)-one-2-(3-nitro)-phenyl-6-β-D-ribofuranoside 5′-)tetraphosphate, tetraammonium salt], the values for the EC50 at P2Y2 receptor, on P2Y6 receptor and at P2Y4 receptor were 300 nM, 870 nM and 60 nM, respectively.
The like results for `Cc1cn([C@H]2C[C@H](O)[C@@H](COP(=O)(O)OP(=O)(O)OP(=O)(O)OP(=O)(O)OC[C@H]3O[C@@H](n4ccc(=O)[nH]c4=O)[C@H](O)[C@@H]3O)O2)c(=O)[nH]c1=O` [Example 7, P^1-(Thymidine-5′-)P^4-(uridine-5′-)tetraphosphate] were, in that order, 110 nM, 880 nM and 200 nM.
The matching figures for `O=c1ccn([C@@H]2O[C@H](COP(=O)(O)OP(=O)(O)OP(=O)(O)OP(=O)(O)OC[C@H]3O[C@@H](n4cnc5c(=O)[nH]cnc54)[C@H](O)[C@@H]3O)[C@@H](O)[C@H]2O)c(=O)[nH]1` [Example 8, P^1-(Inosine 5′-)P^4-(uridine 5′-)tetraphosphate]: 110 nM, 800 nM and 150 nM.
In the case of `O=c1ccn([C@@H]2O[C@H](COP(=O)(O)OP(=O)(O)OP(=O)(O)OP(=O)(O)OC[C@H]3O[C@@H](n4ccc(=S)[nH]c4=O)[C@H](O)[C@@H]3O)[C@@H](O)[C@H]2O)c(=O)[nH]1` [Example 9, P^1-(4-Thiouridine 5′-)P^4-(uridine 5′-)tetraphosphate], the EC50 on P2Y1 receptor [2] was over 100000 nM; at P2Y2 receptor it was 370 nM; at P2Y6 receptor it was 1790 nM; at P2Y4 receptor it was 4160 nM.
For the compound `Nc1ccn([C@@H]2O[C@H](COP(=O)(O)OP(=O)(O)OP(=O)(O)OP(=O)(O)OC[C@H]3O[C@@H](n4ccc(=O)[nH]c4=O)[C@H](O)[C@@H]3O)[C@@H](O)[C@@H]2O)c(=O)n1` [Example 10, P^1-(Cytosine β-D-arabinofuranoside 5′-)P^4-(uridine 5′-)tetraphosphate], the half-maximal effective concentration (EC50) worked out at 190 nM at P2Y2 receptor, 1300 nM at P2Y6 receptor and 320 nM at P2Y4 receptor. At P2Y4 receptor (inositol phosphate formation), the “Percentage response … P2Y4” value is 65%.
Take `O=c1ccn([C@@H]2O[C@H](COP(=O)(O)OP(=O)(O)OP(=O)(O)OP(=O)(O)OC[C@H]3O[C@@H](n4cnc5c(=O)[nH]c(=O)[nH]c54)[C@H](O)[C@@H]3O)[C@@H](O)[C@H]2O)c(=O)[nH]1` [Example 11, P^1-(Uridine 5′-)-P^4-(xanthosine 5′-)tetraphosphate]: the results for the EC50 on P2Y2 receptor, at P2Y6 receptor and at P2Y4 receptor were 130 nM, 3390 nM and 380 nM, respectively. Further, on P2Y4 receptor (inositol phosphate formation), the “Percentage response … P2Y4” value was 75%.
With `O=c1ccn([C@@H]2O[C@H](COP(=O)(O)OP(=O)(O)OP(=O)(O)OP(=O)(O)OC[C@H]3O[C@@H](n4ccc(=O)[nH]c4=O)C[C@@H]3O)[C@@H](O)[C@H]2O)c(=O)[nH]1` [Example 12, P^1-(2′-deoxyuridine 5′-)-P^4-(uridine 5′-)tetraphosphate], the EC50 was determined as 100 nM on P2Y2 receptor, 920 nM at P2Y6 receptor and 390 nM at P2Y4 receptor.
As to `Cc1cn([C@H]2C[C@H](N=[N+]=[N-])[C@@H](COP(=O)(O)OP(=O)(O)OP(=O)(O)OP(=O)(O)OC[C@H]3O[C@@H](n4ccc(=O)[nH]c4=O)[C@H](O)[C@@H]3O)O2)c(=O)[nH]c1=O` [Example 13, P^1-(3′-Azido-3′-deoxythymidine 5′-)-P^4-(uridine 5′-)tetraphosphate], the figures for the EC50 on P2Y2 receptor, on P2Y6 receptor and at P2Y4 receptor were 200 nM, 540 nM and 130 nM, respectively.
`O=c1ccn([C@@H]2O[C@H](COP(=O)(O)OP(=O)(O)OP(=O)(O)OP(=O)(O)OP(=O)(O)OP(=O)(O)OC[C@H]3O[C@@H](n4ccc(=O)[nH]c4=O)[C@H](O)[C@@H]3O)[C@@H](O)[C@H]2O)c(=O)[nH]1` [Example 14, P^1,P^6-Di(uridine-5′-)hexaphosphate]: the EC50 came out at 10700 nM on P2Y2 receptor (setting [4]), 3500 nM at P2Y6 receptor (setting [5]) and 14700 nM on P2Y4 receptor (setting [6]).
As for `O=c1ccn([C@@H]2O[C@H](COP(=O)(O)OP(=O)(O)OP(=O)(O)O)[C@@H](O)[C@H]2O)c(=O)[nH]1` [UTP, uridine 5′-triphosphate], in data set [3], the “improvement in lung mucociliary clearance” value is 2.5 fold and the side-effects result is on record as “without any significant side-effects”.
For the compound “P^1,P^4-Di(2′(3′)-benzoyl uridine 5′-)tetraphosphate [Example 16]”, the half-maximal effective concentration (EC50) worked out at 790 nM at P2Y2 receptor (setting [4]), 5330 nM on P2Y6 receptor (setting [5]) and 730 nM on P2Y4 receptor (setting [6]). Moreover, the “EC50 P2Y1” value on P2Y1 receptor [1] is “IA (Response < 2-fold basal)”.
